Several values for one entry are separate records, joined by “and”; a condition that tells them apart may be missing. Equal entries are not always repeated.

In data set [1] the target is T1, human recombinant α-syn fibrils (Homo sapiens, UniProt P37840).
T1 construct: made in house; host or cells: E. coli BL21(DE3), plasmid pET11-D
Kind of data set: Competition binding assay against [3H]DCVJ, α-syn fibrils. Particulars: for selectivity over Aβ and tau aggregates: abstract; for Ki: non-radioactive ligand vs [3H]DCVJ 10 nM, α-syn fibrils 125 nM, 2 h 37°C. The protocol: The competitor reaction was diluted with 20 mM Tris-HCl, pH 7.4 to a final volume of 200 μL per well. After incubation for 2 h at 37°C, the binding mixtures were filtered through a Perkin Elmer GF/B glass filter via a TOMTEC cell harvester and immediately washed three times with 1 mL of deionized water. Filters containing the bound ligands were dried and mixed with 3 mL of Betaplate scint solution (PerkinElmer Life Sciences) and incubated for 2 h before counting in a Wallac 1450 MicroBeta TriLux Liquid Scintillation Counter (PerkinElmer Life Sciences). For the determination of the inhibition constants, data were analyzed using GraphPad Prism software (version 7.0) to obtain IC50 values by fitting the data to the equation Y = bottom + (top - bottom)/(1 + 10(x - log IC50). Ki values were calculated from IC50 values using the equation Ki = IC50/(1 + [radioligand]/Kd).
(§1) The binding affinity of [^18F]d2, [^18F]d4, [^18F]d6, and [^18F]d8 to human recombinant α-syn, Aβ, and tau fibrils was assayed in a competition binding assay with non-radioactive ligands d2, d4, d6, and d8 against tritiated 9-(2,2-dicyanovinyl)julolidine (DCVJ) (Figure 3 and Supplementary Material). […] Although being a pan tracer makes DCVJ a less suitable tracer for the in vivo imaging of any of the protein aggregates, it makes it, however, a useful tool for evaluating the usefulness of other ligands as tracers for various proteinopathies in competitive binding experiments, as well as for scanning the fibril-binding sites in a set of in silico blind dockings.
Purified recombinant α-syn monomer (10 mg/mL) was incubated in PBS, pH 7.4, at 37 °C by shaking at 900 rpm in an Eppendorf Thermomixer for up to 84 hours. To determine the concentration of fibrils, the fibril reaction mixer was centrifuged at 12000 g for 5 min and the fibril pellet was washed 3 times with 20 mM Tris-HCl pH 7.4 to separate fibrils from monomer. Supernatant from all the centrifugation steps were combined and the concentration of monomer in the supernatant was determined using SDS-PAGE. The concentration of the fibrils formed was determined by subtracting the mount of α-syn monomer in the supernatant from initial amount use for fibrillation process.

Data set [2] deals with T2, Aβ1–42 fibrils (Homo sapiens, UniProt P05067).
T2 construct: 1 mg of β-amyloid1−42 peptide was dissolved in 50 μL DMSO
Kind of data set: Competition binding assay against [3H]DCVJ, Aβ1–42 fibrils. Particulars: for Ki: vs [3H]DCVJ 10 nM, fibrils 125 nM. The protocol:
(§2) Fixed concentrations (125 nM) of Aβ1–42, tau aggregates, and [^3H]DCVJ (10 and 20 nM, respectively) were used with different concentrations of cold d2, d4, d6, and d8 from 1 to 1,000 nM. The experiment was performed in quadruplicates for each concentration. Further procedures followed the same already described in section “Competition Binding Assays for α-Syn Fibrils.”
as §1
1 mg of β-amyloid1−42 peptide was dissolved in 50 μL DMSO. 925 μL of Milli-Q water was added to the above. Then 25 μL of 1M Tris HCl, pH 7.4 was added to bring the final peptide concentration to 1 mg/mL. The dissolved peptide was then incubated for 30 h at 37°C with shaking at 900 rpm. To determine the concentration of fibrils, the fibril reaction mixer was centrifuged at 12000 g for 5 min and the fibril pellet was washed three times in 20 mM Tris-HCl pH 7.4 to separate fibrils from monomer. Supernatant from all centrifugation steps were combined and the concentration of monomer in the supernatant was determined in a BCA assay, alongside a BSA standard curve. The concentration of the fibrils formed was determined by subtracting the amount of β-amyloid1−42 monomer in the supernatant from initial amount used for fibrillation.

In data set [3] the target is tau fibrils (Homo sapiens, UniProt P10636). Kind of data set: Competition binding assay against [3H]DCVJ, tau fibrils. Particulars: for Ki: vs [3H]DCVJ 20 nM, fibrils 125 nM. How it is done:
as §2, §1
Recombinant tau monomer was dissolved at 300 µg/mL concentration in 20 mM Tris HCl pH 8.0, 100 mM NaCl, 25 μM low molecular weight heparin, and 0.5 mM DTT. The dissolved peptide was incubated at 37°C for 48 hours with shaking at 900 rpm. To determine the concentration of fibrils, the fibril reaction mixer was centrifuged at 12000 g for 5 min and the fibril pellet was washed 3 times in 20 mM Tris-HCl pH 7.4 to separate fibrils from monomer. Supernatants from all centrifugation steps were combined and the concentration of monomer in the supernatant was determined using BCA assay, alongside a BSA standard curve. The concentration of the fibrils formed was determined by subtracting the amount of tau monomer in the supernatant from initial amount used for fibrillation.

Data set [4] in a line: Log D determination (octanol/PBS pH 7.4). The format is physicochemical. Particulars: for logD: octanol/PBS pH 7.4, n = 3. The protocol: To a solution of [^18F]d2, [^18F]d4, [^18F]d6, and [^18F]d8 (0.5–1.0 MBq) in 0.5 mL octanol, 0.5 mL PBS (pH 7.4) was added in a 1.5 mL Eppendorf vial. The vials were vigorously vortexed for 10 min. To achieve efficient phase separation, the vials were centrifuged for 10 min at 13,000 rpm in a Heraeus Biofuge 13 centrifuge. Aliquots (100 μL) of the aqueous and the octanol phase were collected carefully and the amount radioactivity in the respective samples was quantified using a γ-counter. The log octanol/PBS values were calculated from the means of n = 3 separate determinations.

The nature of data set [5]: In vitro plasma protein binding (ultrafiltration). Particulars: for fp (free plasma fraction): human plasma, ultrafiltration, n = 3. The format is in vitro ADME, human. The protocol:
To estimate the free fraction (fp) of the radioligands in the plasma, an ultrafiltration method was used. Approximately 1 MBq of [^18F]d2, [^18F]d4, [^18F]d6, and [^18F]d8 were added to 450 μL of Seronorm Human plasma (Invicon GmbH, Munich, Germany), and the mixture was incubated for 10 min. After incubation, 150 μL of plasma was transferred into 3 ultrafiltration tubes (Centrifree YM-30; cutoff 30,000 MW; Millipore) and centrifuged at 8,000 rpm for 10 min. Equal aliquots of the ultrafiltrate (Cfree), and of the plasma (Ctotal) were counted for their radioactivity with a γ-counter. The fp of the radioligands was calculated as fp = Cfree/Ctotal (n = 3).

The nature of data set [6]: Biodistribution experiments. The format is in vivo, healthy C57BL/6J mice. Particulars: for brain uptake at 5 min p.i. / brain uptake at 60 min p.i.: i.v. How it is done: The ethanol solutions containing the tracers [^18F]d2, [^18F]d4, [^18F]d6, and [^18F]d8 were diluted with DMSO, Tween-20, and saline added consecutively to achieve a final concentration of 2.4, 2.4, and 0.4% of ethanol, DMSO, and Tween-20, respectively. The pH was adjusted with 0.05 N aqueous sodium hydroxide solution. 1.5–2.5 MBq of [^18F]d2, [^18F]d4, [^18F]d6, and [^18F]d8 prepared in the above solvent mixture were administered to the mice via the caudal vein under isoflurane anesthesia. The mice were sacrificed at 5 and 60 min p.i. The following organs/tissues were extracted: blood, heart, lung, liver, stomach, pancreas, colon, small intestine, kidney, muscle, bone, tail, and the brain. The radioactivity in the pre-weighed tissue samples was determined using a γ-counter. Data are expressed as a percent of the injected dose per gram tissue (% ID/g; mean ± sd, n = 3).

Data set [7] can be described thus: In vivo PET-MRI dynamic scan with biodistribution. Particulars: healthy mice, i.v., biodistribution after PET dynamic scan. Also on record: species or system healthy C57BL/6J mice. The protocol: For PET imaging [^18F]d6 and [^18F]d8 were prepared as described in section “Biodistribution Experiments” and ∼11 MBq was injected via the caudal vein in the mice (n = 3 for each tracer). PET was recorded on nanoScan PET/MRI (Mediso Medical Imaging System) under isoflurane anesthesia. PET was continuously recorded in list mode for 120 min and consisted of 36 frames (1 × 60 s; 30 × 10 s; 1 × 600 s; 1 × 900 s; and 3 × 1800 s) while anesthesia was maintained. Data were reconstructed using Nucline nanoScan 3.00.021.0000 software, employing a three-dimensional ordered subset expectation maximum (OSEM3D) algorithm without a scatter and attenuation correction. Tissue time–activity curves (TACs) were obtained by projecting the defined ROI onto all frames of the dynamic PET scans. At 2 h after the PET dynamic scan, the mice were promptly euthanized, the rest of the protocol followed as already described in section “Biodistribution Experiments.”

Data set [8] is described as follows: Metabolite experiments (brain and plasma, 20 min p.i.). The format is in vivo, healthy mice. The protocol: Tracers [^18F]d6 and [^18F]d8 were prepared as already described above in section “Biodistribution Experiments.” About 80–120 MBq of the tracers were injected via the caudal vein in the mice (n = 3 per tracer). At 20 min p.i., the animals were euthanized, and the needed tissues were extracted and placed on dry ice. To separate plasma from the blood cells, the blood samples were first centrifuged 13,000 rpm for 10 min, then acetonitrile acidified with 1% trifluoroacetic acid (TFA) (10 min, 4°C) was added to the centrifugate to precipitate the plasma proteins, followed by another centrifugation as already described, and ultrafiltration using ultrafiltration tubes (Centrifree YM-30; cutoff 30,000 MW; Millipore). A 10 μL of 1 M DMSO solution of the cold references was added to the centrifugate which was subsequently analyzed by RP-HPLC. The brain was frozen in liquid nitrogen and homogenized with a ball mill. A mixture of acetonitrile and DMSO (5:1) with 1% TFA containing the cold references of the tracers was added to the homogenate and mixed. The suspension was centrifuged. The supernatant was then filtered using ultrafiltration tubes as already described, the resulting filtrate was subsequently analyzed by RP-HPLC.

tau fibrils, sequence (P10636 2-758): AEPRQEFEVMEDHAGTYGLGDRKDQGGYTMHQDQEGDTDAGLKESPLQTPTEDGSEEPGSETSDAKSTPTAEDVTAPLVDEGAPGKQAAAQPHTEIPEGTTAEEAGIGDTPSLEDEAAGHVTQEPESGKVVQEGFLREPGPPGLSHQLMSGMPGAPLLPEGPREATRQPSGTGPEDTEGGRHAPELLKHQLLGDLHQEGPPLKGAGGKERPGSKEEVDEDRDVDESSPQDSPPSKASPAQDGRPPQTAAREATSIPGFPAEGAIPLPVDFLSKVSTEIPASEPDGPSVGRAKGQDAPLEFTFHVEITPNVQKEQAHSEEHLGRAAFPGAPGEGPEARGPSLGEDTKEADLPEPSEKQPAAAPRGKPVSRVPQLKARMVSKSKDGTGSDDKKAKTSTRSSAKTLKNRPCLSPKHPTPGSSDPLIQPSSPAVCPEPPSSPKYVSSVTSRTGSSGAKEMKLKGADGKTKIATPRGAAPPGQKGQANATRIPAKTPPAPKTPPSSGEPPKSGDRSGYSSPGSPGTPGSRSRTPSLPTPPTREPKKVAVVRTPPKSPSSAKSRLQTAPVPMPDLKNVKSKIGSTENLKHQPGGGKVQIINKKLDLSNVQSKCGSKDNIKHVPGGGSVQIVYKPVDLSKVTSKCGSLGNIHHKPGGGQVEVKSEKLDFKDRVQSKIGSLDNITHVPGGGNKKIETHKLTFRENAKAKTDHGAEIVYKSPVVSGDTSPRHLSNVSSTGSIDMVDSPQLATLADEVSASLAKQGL
T2 sequence (P05067 672-713): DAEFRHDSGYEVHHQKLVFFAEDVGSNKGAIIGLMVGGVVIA

`COc1ccc(-c2csc(-c3nc(-c4cnc5c(c4)OCO5)cs3)n2)cc1F` [d4, 6-(4'-(3-fluoro-4-methoxyphenyl)-[2,2'-bithiazol]-4-yl)-[1,3]dioxolo[4,5-b]pyridine]: the “selectivity over Aβ and tau aggregates” value in data set [1] is recorded as > 200 fold. The Ki in data set [1] is 0.66 nM; in data set [2] it was 275 nM; in data set [3] it was > 1000 nM.

Compound `[18F]c1ccc(-c2csc(-c3nc(-c4ccc5c(c4)OCO5)cs3)n2)cn1` [[^18F]d6, 4-(benzo [d][1,3]dioxol-5-yl)-4′-(6-[^18F]fluoropyridin-3-yl)-2,2′-bithiazole] showed a logD in data set [4] of 2.8 ± 0.09. Moreover, in data set [5], the “fp (free plasma fraction)” value is 0.14 ± 0.02%. For the same compound, in data set [6] (healthy mice, 5 min p.i.), the “brain uptake at 5 min p.i.” value came to 5.79 %ID/g. The “brain uptake at 60 min p.i.” value in data set [6] (healthy mice) is 1.75 %ID/g. Further, the “brain uptake at 120 min p.i.” value in data set [7] came out at 1.04 %ID/g.

In the case of `[18F]c1ccc(-c2csc(-c3nc(-c4cnc5c(c4)OCO5)cs3)n2)cn1` [[^18F]d8, 6-(4′-(6-[^18F]fluoropyridin-3-yl)-[2,2′-bithiazol]-4-yl)-[1,3]dioxolo[4,5-b]pyridine], the “reduction of log D versus benzodioxole counterpart” value in data set [4] ([18F]d4 vs [18F]d2, [18F]d8 vs [18F]d6) was ~7.1%. The logD in data set [4] was determined as 2.6 ± 0.09. In data set [5] ([18F]d8 vs [18F]d6, [18F]d4 vs [18F]d2), the “fp relative to benzodioxole counterpart” value is “about 6 times”. Further, the “fp (free plasma fraction)” value in data set [5] came out at 0.85 ± 0.02%. In data set [6] (healthy mice, 5 min p.i.), the “reduction in brain concentration at 5 min p.i. versus [18F]d6” value is recorded as 11.4% and the “brain uptake at 5 min p.i.” value came out at 5.13 %ID/g. Further, the “brain uptake at 60 min p.i.” value in data set [6] (healthy mice) is ~1 %ID/g and 1.07 %ID/g. For the same compound, the “brain uptake in mice” value in data set [6] (mice, time not stated) is > 4 % ID/g. Moreover, the “brain uptake at 120 min p.i.” value in data set [7] was < 1 %ID/g and 0.58 %ID/g. Further, the brain radiometabolites result in data set [8] (healthy mice) is “no brain radiometabolites”. Further, in data set [8] (mice, brain homogenate), the “parent tracer in brain content” value is > 99%. For the same compound, the “parent tracer remaining in the plasma (in vivo stability)” value in data set [8] (mice, plasma) is > 60%.

In the case of `COc1ccc(-c2csc(-c3nc(-c4ccc5c(c4)OCO5)cs3)n2)cc1F` [d2, 4-(benzo[d][1,3]dioxol-5-yl)-4'-(3-fluoro-4-methoxyphenyl)-2,2'-bithiazole], in data set [1], the “selectivity over Aβ” value is given as “about 200 fold”; the selectivity over tau was ~1,000 fold; the “selectivity over Aβ and tau aggregates” value was > 200 fold; the Ki stood at 1.22 nM. The Ki in data set [2] turned out to be 242 nM. Also, in data set [3], the inhibition constant Ki is > 1000 nM.

For `Fc1ccc(-c2csc(-c3nc(-c4ccc5c(c4)OCO5)cs3)n2)cn1` [d6, 4-(benzo[d][1,3]dioxol-5-yl)-4'-(6-fluoropyridin-3-yl)-2,2'-bithiazole], the “selectivity over Aβ and tau aggregates” value in data set [1] is recorded as > 200 fold. In addition, the values for the Ki in data set [1], in data set [2] and in data set [3] were 1.21 nM, 237 nM and 966 nM, respectively.

Take `Fc1ccc(-c2csc(-c3nc(-c4cnc5c(c4)OCO5)cs3)n2)cn1` [d8, 6-(4'-(6-fluoropyridin-3-yl)-[2,2'-bithiazol]-4-yl)-[1,3]dioxolo[4,5-b]pyridine]: in data set [1], the “selectivity over Aβ and tau aggregates” value was > 200 fold. Further, the results for the Ki in data set [1], in data set [2] and in data set [3] were 0.1 nM, 386 nM and > 1000 nM, respectively.

As for `N#CC(C#N)=Cc1cc2c3c(c1)CCCN3CCC2` [DCVJ, 9-(2,2-dicyanovinyl)julolidine, reference compound], the Kd came out at 4.42 nM in data set [1] (radioligand/pan-amyloid ligand); 8.9 nM in data set [2] (radioligand/pan-amyloid ligand, read-out: Kd for Aβ); 15.6 nM in data set [3] (radioligand/pan-amyloid ligand).

Broadly, the Ki is the dissociation constant of the complex between target and ligand, obtained from inhibition or displacement. The logD is the decadic logarithm of the distribution of all forms, ionised or not, between an organic phase and buffer at a given pH. Read a high logD as higher lipophilicity. What is called Kd is the concentration at which binding is half-saturated.

The record behind these values is publication PMC9099256, “Toward Novel [^18F]Fluorine-Labeled Radiotracers for the Imaging of α-Synuclein Fibrils” (Frontiers in Aging Neuroscience, 2022).
